Measured values as given in the supplement of paper PMC10307832.

Experiments:
Test in all cases: relative viability (nuclei count vs DMSO), 5 days (fraction); higher = more cells survive
[1] = tested on: CAL-12T
Method in brief: (§1)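 Nuclei were stained with Hoechst during a one-step fixation (final 0.05% Triton X-100, 1% formaldehyde, 1 ug/ml Hoechst) carried out 5 days after dosing, then counted on 4× images. The cells, lung cancer lines in 1536-well plates, had been dosed by pin tool the day after seeding with one drug alone or a fixed anchor-drug dose plus five library-drug doses (not always all listed) in √10 steps. Relative viability is the nuclei count in treated wells divided by that in vehicle wells, and each value is the median of duplicate plates.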

[2] = tested on: COR-L23
Method in brief: as §1

[3] = tested on: EKVX
Method in brief: as §1

[4] = tested on: H3255
Method in brief: as §1

[5] = tested on: HCC-15
Method in brief: as §1

[6] = tested on: HCC-827
Method in brief: as §1

[7] = tested on: LK-2
Method in brief: as §1

[8] = tested on: NCI-H1355
Method in brief: as §1

[9] = tested on: NCI-H1437
Method in brief: as §1

[10] = tested on: NCI-H1650
Method in brief: as §1

[11] = tested on: NCI-H1651
Method in brief: as §1

[12] = tested on: NCI-H1734
Method in brief: as §1

[13] = tested on: NCI-H2228
Method in brief: as §1

[14] = tested on: NCI-H2405
Method in brief: as §1

[15] = tested on: NCI-H322M
Method in brief: as §1

[16] = tested on: NCI-H520
Method in brief: as §1

[17] = tested on: PC-14
Method in brief: as §1

[18] = tested on: PC-3 [JPC-3]
Method in brief: as §1

[19] = tested on: RERF-LC-KJ
Method in brief: as §1

[20] = tested on: SK-MES-1
Method in brief: as §1

[21] = tested on: SW 1573
Method in brief: as §1

COc1cc(N2CCC(C(N)=O)CC2)ccc1Nc1nc(N)c(Cl)c(Nc2ccccc2S(=O)(=O)C(C)C)n1 [HG-5-88-01] + CC1(C)CCC(c2ccc(Cl)cc2)=C(CN2CCN(c3ccc(C(=O)NS(=O)(=O)c4ccc(N[C@H](CCN5CCOCC5)CSc5ccccc5)c(S(=O)(=O)C(F)(F)F)c4)cc3)CC2)C1 [Navitoclax] (partner 0.5 µM)
relative viability ([1]; first compound 0.04 µM): 1.26
relative viability ([1]; first compound 0.1265 µM): 1.15
relative viability ([1]; first compound 0.4 µM): 1.18
relative viability ([1]; first compound 1.265 µM): 1.14
relative viability ([1]; first compound 4 µM): 1.02
relative viability ([2]; first compound 0.04 µM): 0.936
relative viability ([2]; first compound 0.1265 µM): 1
relative viability ([2]; first compound 0.4 µM): 0.998
relative viability ([2]; first compound 1.265 µM): 0.883
relative viability ([2]; first compound 4 µM): 0.98
relative viability ([3]; first compound 0.04 µM): 1.03
relative viability ([3]; first compound 0.1265 µM): 0.952
relative viability ([3]; first compound 0.4 µM): 0.634
relative viability ([3]; first compound 4 µM): 0.839
relative viability ([4]; first compound 0.04 µM): 0.506
relative viability ([4]; first compound 0.1265 µM): 0.467
relative viability ([4]; first compound 0.4 µM): 0.428
relative viability ([4]; first compound 4 µM): 0.138
relative viability ([5]; first compound 0.04 µM): 0.702
relative viability ([5]; first compound 0.1265 µM): 0.74
relative viability ([5]; first compound 0.4 µM): 0.672
relative viability ([5]; first compound 1.265 µM): 0.723
relative viability ([5]; first compound 4 µM): 0.464
relative viability ([6]; first compound 0.04 µM): 0.997
relative viability ([6]; first compound 0.1265 µM): 1.04
relative viability ([6]; first compound 0.4 µM): 1.03
relative viability ([6]; first compound 1.265 µM): 1.02
relative viability ([6]; first compound 4 µM): 0.723
relative viability ([7]; first compound 0.04 µM): 0.872
relative viability ([7]; first compound 0.1265 µM): 1.03
relative viability ([7]; first compound 0.4 µM): 0.805
relative viability ([7]; first compound 1.265 µM): 0.377
relative viability ([7]; first compound 4 µM): 0.541
relative viability ([8]; first compound 0.04 µM): 1.01
relative viability ([8]; first compound 0.1265 µM): 1.08
relative viability ([8]; first compound 0.4 µM): 0.959
relative viability ([8]; first compound 1.265 µM): 0.789
relative viability ([8]; first compound 4 µM): 0.841
relative viability ([9]; first compound 0.04 µM): 1.1
relative viability ([9]; first compound 0.1265 µM): 1.11
relative viability ([9]; first compound 0.4 µM): 1.05
relative viability ([9]; first compound 1.265 µM): 1.04
relative viability ([9]; first compound 4 µM): 1.02
relative viability ([10]; first compound 0.04 µM): 1.54
relative viability ([10]; first compound 0.1265 µM): 1.32
relative viability ([10]; first compound 0.4 µM): 1.26
relative viability ([10]; first compound 1.265 µM): 0.918
relative viability ([10]; first compound 4 µM): 1.07
relative viability ([11]; first compound 0.04 µM): 1.27
relative viability ([11]; first compound 0.1265 µM): 1.04
relative viability ([11]; first compound 0.4 µM): 1.08
relative viability ([11]; first compound 1.265 µM): 1.05
relative viability ([11]; first compound 4 µM): 1.04
relative viability ([12]; first compound 0.04 µM): 0.771
relative viability ([12]; first compound 0.1265 µM): 0.858
relative viability ([12]; first compound 0.4 µM): 0.943
relative viability ([12]; first compound 1.265 µM): 0.827
relative viability ([12]; first compound 4 µM): 0.757
relative viability ([13]; first compound 0.04 µM): 0.65
relative viability ([13]; first compound 0.1265 µM): 0.295
relative viability ([13]; first compound 0.4 µM): 0.485
relative viability ([13]; first compound 1.265 µM): 0.417
relative viability ([13]; first compound 4 µM): 0.27
relative viability ([14]; first compound 0.04 µM): 0.99
relative viability ([14]; first compound 0.1265 µM): 1.03
relative viability ([14]; first compound 0.4 µM): 0.825
relative viability ([14]; first compound 1.265 µM): 0.319
relative viability ([14]; first compound 4 µM): 0.784
relative viability ([15]; first compound 0.04 µM): 1.16
relative viability ([15]; first compound 0.1265 µM): 1.21
relative viability ([15]; first compound 0.4 µM): 1.18
relative viability ([15]; first compound 1.265 µM): 0.907
relative viability ([15]; first compound 4 µM): 1.26
relative viability ([16]; first compound 0.04 µM): 1.09
relative viability ([16]; first compound 0.1265 µM): 1.09
relative viability ([16]; first compound 0.4 µM): 0.761
relative viability ([16]; first compound 1.265 µM): 1.17
relative viability ([16]; first compound 4 µM): 1.26
relative viability ([17]; first compound 0.04 µM): 0.953
relative viability ([17]; first compound 0.1265 µM): 1.05
relative viability ([17]; first compound 0.4 µM): 0.995
relative viability ([17]; first compound 1.265 µM): 1.12
relative viability ([17]; first compound 4 µM): 0.272
relative viability ([18]; first compound 0.04 µM): 0.837
relative viability ([18]; first compound 0.1265 µM): 0.83
relative viability ([18]; first compound 0.4 µM): 0.841
relative viability ([18]; first compound 1.265 µM): 0.753
relative viability ([18]; first compound 4 µM): 0.751
relative viability ([19]; first compound 0.04 µM): 1.05
relative viability ([19]; first compound 0.1265 µM): 0.846
relative viability ([19]; first compound 0.4 µM): 0.954
relative viability ([19]; first compound 1.265 µM): 0.941
relative viability ([19]; first compound 4 µM): 0.5
relative viability ([20]; first compound 0.04 µM): 1.17
relative viability ([20]; first compound 0.1265 µM): 1.29
relative viability ([20]; first compound 0.4 µM): 1.2
relative viability ([20]; first compound 1.265 µM): 1.21
relative viability ([20]; first compound 4 µM): 1.03
relative viability ([21]; first compound 0.04 µM): 0.952
relative viability ([21]; first compound 0.1265 µM): 1.05
relative viability ([21]; first compound 0.4 µM): 0.9
relative viability ([21]; first compound 1.265 µM): 0.996
relative viability ([21]; first compound 4 µM): 0.863
